What all share (type): biochemical
Test [1] has as its target T1, hAPN (recombinant human alanine aminopeptidase, EC 3.4.11.2) (Homo sapiens, UniProt P15144).
T1 construct: gene ANPEP; commercial recombinant enzyme (R&D Systems), lyophilized powder
The test can be described thus: fluorogenic assay, Ala-AMC hydrolysis; Ki by Lineweaver-Burk, Dixon, Cheng-Prusoff. From the text: fluorogenic assay, Ala-AMC hydrolysis; Ki by Lineweaver-Burk, Dixon, Cheng-Prusoff on hAPN (recombinant human alanine aminopeptidase, EC 3.4.11.2)

The target in test [2] is T2, pAPN (porcine kidney alanine aminopeptidase, EC 3.4.11.2) (Sus scrofa, UniProt P15145).
T2 construct: gene ANPEP; commercial enzyme from porcine kidney (Sigma Aldrich), native purification, lyophilized powder
T2 sequence (P15145 2-963): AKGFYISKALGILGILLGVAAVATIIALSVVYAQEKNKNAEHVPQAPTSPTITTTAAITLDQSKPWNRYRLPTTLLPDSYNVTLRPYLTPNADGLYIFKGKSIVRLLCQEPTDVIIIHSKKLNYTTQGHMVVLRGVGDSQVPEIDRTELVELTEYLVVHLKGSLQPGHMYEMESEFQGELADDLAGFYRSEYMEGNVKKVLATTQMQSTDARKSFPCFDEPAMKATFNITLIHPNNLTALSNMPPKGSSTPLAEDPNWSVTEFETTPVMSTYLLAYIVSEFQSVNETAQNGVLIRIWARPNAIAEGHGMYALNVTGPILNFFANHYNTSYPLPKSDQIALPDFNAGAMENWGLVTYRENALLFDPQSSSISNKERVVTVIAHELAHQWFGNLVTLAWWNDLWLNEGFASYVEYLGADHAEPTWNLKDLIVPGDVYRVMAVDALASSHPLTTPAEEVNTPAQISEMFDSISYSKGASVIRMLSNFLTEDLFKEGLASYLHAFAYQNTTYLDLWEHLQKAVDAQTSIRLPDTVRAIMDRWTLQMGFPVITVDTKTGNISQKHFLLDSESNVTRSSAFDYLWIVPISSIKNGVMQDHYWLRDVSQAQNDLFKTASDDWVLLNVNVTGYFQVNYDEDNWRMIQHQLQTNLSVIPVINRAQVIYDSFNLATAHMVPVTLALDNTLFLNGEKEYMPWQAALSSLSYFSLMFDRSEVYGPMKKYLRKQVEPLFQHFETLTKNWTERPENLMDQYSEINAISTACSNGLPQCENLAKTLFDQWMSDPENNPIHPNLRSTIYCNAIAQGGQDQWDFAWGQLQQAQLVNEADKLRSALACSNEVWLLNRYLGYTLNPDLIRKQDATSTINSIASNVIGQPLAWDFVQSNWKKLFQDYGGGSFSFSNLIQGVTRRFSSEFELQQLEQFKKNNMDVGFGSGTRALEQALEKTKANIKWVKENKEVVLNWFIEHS
The description is as above. Particulars: for pAPN Ki (μM): unreliable (value above highest stated concentration, 1 mM). From the text:
fluorogenic assay, Ala-AMC hydrolysis; Ki by Lineweaver-Burk, Dixon, Cheng-Prusoff on pAPN (porcine kidney alanine aminopeptidase, EC 3.4.11.2)

Test [3] concerns the target T1, hAPN (recombinant human alanine aminopeptidase, EC 3.4.11.2). Description: fluorogenic assay (AMC release). The settings on record: 50 mM Tris-HCl pH 7.00.
Test [4] addresses T2, pAPN (porcine kidney alanine aminopeptidase, EC 3.4.11.2). The test can be described thus: fluorogenic assay (AMC release). The settings on record: 50 mM Tris-HCl pH 7.20.
[5] abbreviates: racemate (hydrochloride), 80 µM Ala-AMC, 50 mM Tris-HCl pH 7.20, 37 °C.
Setting [6] is: read-out: Inactive (no inhibition up to 1 mM).
Where [7] appears, read: racemate (hydrochloride), 80 µM Ala-AMC, 50 mM Tris-HCl pH 7.20, 37 °C, 0.66 nM enzyme, 30 min enzyme preincubation in buffer.

Read-outs that look alike come from different tables or passages of the source.

T1 sequence (P15144 33-967 limits assumed): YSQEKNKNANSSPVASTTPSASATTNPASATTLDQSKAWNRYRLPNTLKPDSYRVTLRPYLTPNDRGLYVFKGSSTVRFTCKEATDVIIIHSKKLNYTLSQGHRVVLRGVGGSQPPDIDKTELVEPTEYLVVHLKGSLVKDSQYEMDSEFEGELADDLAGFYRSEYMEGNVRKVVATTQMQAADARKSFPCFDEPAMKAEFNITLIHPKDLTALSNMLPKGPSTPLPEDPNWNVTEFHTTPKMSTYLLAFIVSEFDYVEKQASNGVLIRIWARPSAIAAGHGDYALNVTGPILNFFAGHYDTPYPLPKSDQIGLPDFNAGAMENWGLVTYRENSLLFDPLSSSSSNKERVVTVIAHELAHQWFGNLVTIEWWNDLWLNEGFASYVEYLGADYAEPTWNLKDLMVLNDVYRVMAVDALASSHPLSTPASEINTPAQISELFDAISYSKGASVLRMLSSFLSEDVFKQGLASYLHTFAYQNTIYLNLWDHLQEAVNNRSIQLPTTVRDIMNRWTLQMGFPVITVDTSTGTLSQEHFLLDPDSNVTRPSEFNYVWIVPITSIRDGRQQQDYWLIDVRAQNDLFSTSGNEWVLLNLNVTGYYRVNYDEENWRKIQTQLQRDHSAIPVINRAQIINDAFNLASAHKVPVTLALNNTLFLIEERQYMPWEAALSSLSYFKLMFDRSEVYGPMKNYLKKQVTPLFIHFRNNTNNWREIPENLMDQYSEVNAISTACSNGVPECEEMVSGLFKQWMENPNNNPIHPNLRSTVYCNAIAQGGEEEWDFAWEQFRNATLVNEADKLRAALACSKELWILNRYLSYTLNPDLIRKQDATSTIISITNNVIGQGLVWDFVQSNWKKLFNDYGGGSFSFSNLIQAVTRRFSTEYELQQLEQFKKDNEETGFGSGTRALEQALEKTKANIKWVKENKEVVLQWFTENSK

Regarding `NC(Cc1ccccc1F)P(=O)(O)O` (racemic) [1b, 1-Amino-2-(2-fluorophenyl)ethylphosphonic Acid], the Ki in test [1] came to 18.1 ± 3.7 µM; in test [2] it was 256 ± 19 µM.
For the compound `NC(Cc1cccc(F)c1)P(=O)(O)O` (racemic) [1c, 1-Amino-2-(3-fluorophenyl)ethylphosphonic Acid], the Ki is 3.39 ± 0.71 µM in test [1] and 26.4 ± 2 µM in test [2].
On the same counts, the results for `NC(Cc1ccc(F)cc1)P(=O)(O)O` (racemic) [1d, 1-Amino-2-(4-fluorophenyl)ethylphosphonic Acid] are 4.86 ± 1.18 µM and 41.4 ± 2.5 µM.
In the case of `NC(Cc1ccc(F)cc1F)P(=O)(O)O` (racemic) [1e, 1-Amino-2-(2,4-difluorophenyl)ethylphosphonic Acid], the Ki in test [1] (read-out: hAPN Ki) came to 13.5 ± 2.7 µM; in test [2] it was 95.6 ± 9.6 µM.
Regarding `NC(Cc1cc(F)ccc1F)P(=O)(O)O` (racemic) [1f, 1-Amino-2-(2,5-difluorophenyl)ethylphosphonic Acid], the Ki was 25.9 ± 5 µM in test [1] (read-out: hAPN Ki) and 86.3 ± 8.2 µM in test [2].
On the same counts, the results for `NC(Cc1c(F)cccc1F)P(=O)(O)O` (racemic) [1g, 1-Amino-2-(2,6-difluorophenyl)ethylphosphonic Acid] are 327 ± 98 µM and 725 ± 121 µM.
For the compound `NC(Cc1ccc(F)c(F)c1)P(=O)(O)O` (racemic) [1h, 1-Amino-2-(3,4-difluorophenyl)ethylphosphonic Acid], the Ki in test [1] (read-out: hAPN Ki) is 1.71 ± 0.52 µM; in test [2] it was 15.7 ± 2.5 µM.
As for `NC(Cc1cc(F)cc(F)c1)P(=O)(O)O` (racemic) [1i, 1-Amino-2-(3,5-difluorophenyl)ethylphosphonic Acid], the Ki in test [1] (read-out: hAPN Ki) was found to be 0.529 ± 0.088 µM; in test [2], 8.09 ± 1.1 µM.
Take `NC(Cc1cc(F)c(F)cc1F)P(=O)(O)O` (racemic) [1j, 1-Amino-2-(2,4,5-trifluorophenyl)ethylphosphonic Acid]: the results for the Ki in test [1] (read-out: hAPN Ki) and in test [2] were 15 ± 2.2 µM and 78.5 ± 3.9 µM, respectively.
Turning to `NC(Cc1c(F)cc(F)cc1F)P(=O)(O)O` (racemic) [1k, 1-Amino-2-(2,4,6-trifluorophenyl)ethylphosphonic Acid], the Ki in test [1] (read-out: hAPN Ki) turned out to be 225 ± 47 µM; in test [2], 969 ± 158 µM.
For `NC(Cc1cc(F)c(F)c(F)c1)P(=O)(O)O` (racemic) [1l, 1-Amino-2-(3,4,5-trifluorophenyl)ethylphosphonic Acid], the Ki was found to be 0.793 ± 0.138 µM in test [1] (read-out: hAPN Ki) and 7.1 ± 0.93 µM in test [2].
On the same counts, the results for `NC(Cc1c(F)c(F)c(F)c(F)c1F)P(=O)(O)O` (racemic) [1m, 1-Amino-2-(2,3,4,5,6-pentafluorophenyl)ethylphosphonic Acid] are 139 ± 71 µM and 808 ± 132 µM.
Take `NC(Cc1cccc(Cl)c1F)P(=O)(O)O` (racemic) [1n, 1-Amino-2-(3-chloro-2-fluorophenyl)ethylphosphonic Acid]: the Ki is 18.5 ± 7.1 µM in test [1] (read-out: hAPN Ki) and 85.1 ± 9.1 µM in test [2].
Turning to `NC(Cc1ccc(Cl)cc1F)P(=O)(O)O` (racemic) [1o, 1-Amino-2-(4-chloro-2-fluorophenyl)ethylphosphonic Acid], the Ki in test [1] (read-out: hAPN Ki) was 17.8 ± 2.09 µM; in test [2], 160 ± 11 µM.
For `NC(Cc1cc(Cl)ccc1F)P(=O)(O)O` (racemic) [1p, 1-Amino-2-(5-chloro-2-fluorophenyl)ethylphosphonic Acid], the figures for the Ki in test [1] (read-out: hAPN Ki) and in test [2] were 4.3 ± 0.44 µM and 47.2 ± 1.4 µM, respectively.
Turning to `NC(Cc1c(F)cccc1Cl)P(=O)(O)O` (racemic) [1r, 1-Amino-2-(2-chloro-6-fluorophenyl)ethylphosphonic Acid], the Ki in test [1] (read-out: hAPN Ki) turned out to be 360 ± 125 µM. In test [2] (setting [5]), the “pAPN Ki (μM)” value was 2557 ± 729 µM.
Take `NC(Cc1ccc(Cl)c(F)c1)P(=O)(O)O` (racemic) [1s, 1-Amino-2-(4-chloro-3-fluorophenyl)ethylphosphonic Acid]: the Ki in test [1] (read-out: hAPN Ki) stood at 1.01 ± 0.16 µM; in test [2] it was 14.8 ± 0.9 µM.
The corresponding values for `NC(Cc1ccc(F)c(Cl)c1)P(=O)(O)O` (racemic) [1t, 1-Amino-2-(3-chloro-4-fluorophenyl)ethylphosphonic Acid] are 0.542 ± 0.152 µM and 6.93 ± 0.78 µM.
The corresponding values for `NC(Cc1ccc(F)cc1Cl)P(=O)(O)O` (racemic) [1u, 1-Amino-2-(2-chloro-4-fluorophenyl)ethylphosphonic Acid] are 29.1 ± 10.3 µM and 106 ± 12 µM.
With `NC(Cc1ccccc1C(F)(F)F)P(=O)(O)O` (racemic) [1v, 1-Amino-2-(2-trifluoromethylphenyl)ethylphosphonic Acid], the Ki in test [1] (setting [6]) was more than 1000 µM. For the same compound, the “pAPN Ki (μM)” value in test [2] (setting [5]) stood at 2335 ± 617 µM.
Turning to `NC(Cc1cccc(C(F)(F)F)c1)P(=O)(O)O` (racemic) [1w, 1-Amino-2-(3-trifluoromethylphenyl)ethylphosphonic Acid], the Ki in test [1] (read-out: hAPN Ki) came out at 2.53 ± 0.4 µM; in test [2], 66 ± 7.3 µM.
Regarding `NC(Cc1ccc(C(F)(F)F)cc1)P(=O)(O)O` (racemic) [1x, 1-Amino-2-(4-trifluoromethylphenyl)ethylphosphonic Acid], the Ki in test [1] (read-out: hAPN Ki) came to 24.9 ± 3 µM; in test [2], 257 ± 27 µM.
Regarding `NC(Cc1cc(F)ccc1C(F)(F)F)P(=O)(O)O` (racemic) [1y, 1-Amino-2-(5-fluoro-2-trifluoromethylphenyl)ethylphosphonic Acid], in test [1] (setting [6]), the Ki is more than 1000 µM. In test [2] (setting [7]), the “Inactive (no inhibition up to 1 mM)” value was more than 1 mM.
For the compound `NC(Cc1ccc(F)c(C(F)(F)F)c1)P(=O)(O)O` (racemic) [1z, 1-Amino-2-(4-fluoro-3-trifluoromethylphenyl)ethylphosphonic Acid], the Ki came to 3.55 ± 0.43 µM in test [1] (read-out: hAPN Ki) and 67.7 ± 5.6 µM in test [2].
Consider `NC(CC(F)(F)F)P(=O)(O)O` (racemic) [compound 8, (1-Amino-3,3,3-trifluoropropyl)phosphonic acid], for which the Ki in test [1] came out at 84.7 ± 15.8 µM; in test [2], 755 ± 230 µM.
For `NC(Cc1ccccc1)P(=O)(O)O` (stereo not drawn) [1a, 1-Amino-2-phenylethylphosphonic Acid], the Ki in test [1] (racemate (hydrochloride), 50 µM Ala-AMC, 50 mM Tris-HCl pH 7.00, 37 °C, 0.66 nM enzyme, 30 min enzyme preincubation in buffer, read-out: hAPN Ki) stood at 15.5 ± 1.7 µM; in test [2] (setting [7]) it was 73.3 ± 7.6 µM.
For the compound `Cc1cc(=O)oc2cc(NC(=O)[C@H](C)N)ccc12` [Ala-AMC, L-alanine-4-methylcoumaryl-7-amide], the Km was 73 µM in test [3] and 90 µM in test [4].

The term Km denotes the substrate concentration at which the rate is half of its maximum.

Values taken from paper PMC7226027, “Phosphonic Acid Analogs of Fluorophenylalanines as Inhibitors of Human and Porcine Aminopeptidases N: Validation of the Importance of the Substitution of the Aromatic Ring” (Biomolecules, 2020).
